The source of these data is patent publication US9817000B2, “Method for identifying compounds that modulate a T2R taste receptor” (The Regents of the University of California, priority 1999, dated 2017).

Usually EC50 stands for the midpoint of the concentration-response curve. For orientation: Kd means the concentration at which binding is half-saturated.

One experiment concerns the target T1, mT2R5 (Mus musculus, UniProt Q9JKT4).
T1 construct: expressed in transfected cells; host or cells: modified HEK-293 cells (PEAKrapid) expressing Gα15; pEAK10 vector
T1 sequence (Q9JKT4 1-300): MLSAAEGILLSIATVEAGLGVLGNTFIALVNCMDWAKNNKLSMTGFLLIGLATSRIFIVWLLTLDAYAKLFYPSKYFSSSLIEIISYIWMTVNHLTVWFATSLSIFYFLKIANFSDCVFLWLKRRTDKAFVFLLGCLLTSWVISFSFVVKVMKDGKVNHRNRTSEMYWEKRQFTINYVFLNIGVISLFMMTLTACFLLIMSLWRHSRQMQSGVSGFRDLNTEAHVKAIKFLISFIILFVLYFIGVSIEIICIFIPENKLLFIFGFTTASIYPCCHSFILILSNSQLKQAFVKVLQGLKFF
Nature of the experiment: FURA-2 [Ca2+]i imaging in HEK-293 cells expressing Gα15 and rho-mT2R5 (taster, DBA/2 allele). In kind it is cell-based. The conditions noted are these: for [Ca2+]i response (FURA-2): 1.5 μM cycloheximide. The text has this: In this system, receptor activation leads to increases in intracellular calcium [Ca2+]i, which can be monitored at the single cell level using the FURA-2 calcium-indicator dye (Tsien et al., Cell Calcium 6:145-157 (1985)). To test and optimize Gα15 coupling, two different GPCRs, a Gαi-coupled μ-opioid receptor (Reisine, Neuropharm. 34:463-472 (1995)) and a Gαq-coupled mGluR1 receptor (Masu et al., Nature 349:760-765 (1991)), were used. Transfection of these receptors into HEK-293 cell produced robust, agonist-selective, and Gα15-dependent Ca^2+ responses (FIG. 1).
A number of studies have shown that many GPCRs, in particular sensory receptors, require specific “chaperones” for maturation and targeting through the secretory pathway (Baker et al., Embo J 13:4886-4895 (1994); Dwyer et al., Cell 93:455-466 (1998)). Recently, Krautwurst et al. (Cell 95:917-926 (1998)) generated chimeric receptors consisting of the first 20 amino acids of rhodopsin and various rodent olfactory receptors. These were targeted to the plasma membrane and functioned as odorant receptors in HEK-293 cells. To determine whether rhodopsin sequences can also help target T2Rs to the plasma membra, rhodopsin-T2R chimeras (rho-T2Rs) were constructed. […] Similar results were obtained with 11 human and 16 rodent T2Rs (see below). To further enhance the level of T2R expression, rho-T2Rs were placed under the control of a strong EF-1α promoter, and introduced as episomal plasmids into modified HEK-293 cells expressing Gα15 (pEAKrapid cells).
A bridge overlap PCR extension technique was used to generate rho-T2R chimeras, which contain the first 39 amino acids of bovine rhodopsin in frame with human and rodent T2R coding sequences (Mehta and Singh, Biotechniques 26:1082-1086 (1999). All receptors were cloned into a pEAK10 mammalian expression vector (Edge Biosystems, MD). Modified HEK-293 cells (PEAK^rapid cells; Edge BioSystems, MD) were grown and maintained at 37° C. in UltraCulture medium (Bio Whittaker) supplemented with 5% fetal bovine serum, 100 μg/ml Gentamycin sulphate (Fisher), 1 μg/ml Amphotericin B and 2 mM GlutaMax I (Lifetechnologies). For transfection, cells were seeded onto matrigel coated 24-well culture plates or 35 mm recording chambers. After 24 h at 37° C., cells were washed in OptiMEM medium (Lifetechnologies) and transfected using LipofectAMINE reagent (Lifetechnologies). Transfection efficiencies were estimated by co-transfection of a GFP reporter plasmid, and were typically >70%. Immunofluoresence staining, and activity assays were performed 36-48 h after transfection.
Transfected cells were washed once in Hank's balanced salt solution with 1 mM sodium pyruvate and 10 mM HEPES, pH 7.4 (assay buffer), and loaded with 2 μM FURA-2 AM (Molecular Probes) for 1 h at room temperature. The loading solution was removed and cells were incubated in 200 μl of assay buffer for 1 h to allow the cleavage of the AM ester. For most experiments, 24-well tissue culture plates containing cells expressing a single rho-T2R were stimulated with 200 μl of a 2× tastant solution (see next section). [Ca^2+]i changes were monitored using a Nikon Diaphot 200 microscope equipped with a 10×/0.5 fluor objective with the TILL imaging system (T.I.L.L Photonics GmbH). Acquisition and analysis of the fluorescence images used TILL-Vision software. Generally, [Ca^2+]i was measured for 80-120 s by sequentially illuminating cells for 200 ms at 340 nm and 380 nm and monitoring the fluorescence emission at 510 nm using a cooled CCD camera. The F340/F380 ratio was analyzed to measure [Ca^2+]i.
Kinetics of activation and deactivation were measured using a bath perfusion system. Cells were seeded onto a 150 μl microperfusion chamber, and test solutions were pressure-ejected with a picospritzer apparatus (General Valve, Inc.). Flow-rate was adjusted to ensure complete exchange of the bath solution within 4-5 s. […]

Experiment [1] concerns the target T2, mT2R5 coupling to gustducin (Mus musculus, UniProt Q9JKT4).
T2 construct: infectious Bacmid containing rhodopsin tagged mT2R5 (DBA/2-allele) was produced using the Bac-to-Bac system; rhodopsin tag (rho); made in house; host or cells: insect larval cells infected with recombinant Bacmid (Bac-to-Bac baculovirus system); membrane preparation
T2 sequence (Q9JKT4 1-300): T1 sequence (Q9JKT4 1-300)
The experiment is described as follows: Tastant-induced GTPγS binding to gustducin with insect cell membranes containing rho-mT2R5. In kind it is biochemical. Here is the method:
To investigate the selectivity of T2R-G-protein coupling, mT2R5 was chosen for study because its activation by cycloheximide recapitulates mouse taste responses. Rho-tagged mT2R5 and gustducin were prepared using a baculovirus expression system. mT2R5-containing membranes were incubated with various purified G-proteins, including gustducin, and measured tastant-induced GTP-γS binding (Hoon et al., Biochem J 309:629-636 (1995)). Specifically, infectious Bacmid containing rhodopsin tagged mT2R5 (DBA/2-allele) was produced using the Bac-to-Bac system (Lifetechnologies, MD). Insect larval cells were infected for 60 h with recombinant Bacmid and membranes were prepared as described previously (Ryba and Tirindelli, J Biol Chem, 270:6757-6767 (1995)). Peripheral proteins were removed by treatment with 8 M urea and membranes were resuspended in 10 mM HEPES pH7.5, 1 mM EDTA and 1 mM DTT. The expression of rho-mT2R5 was assessed by Western blot using mAb B6-30 and quantitated by comparison with known amounts of rhodopsin. Approximately 300 pmol of rho-mT2R5 could be obtained from 2×10^8 infected cells. Gustducin and Gβ1γ8 heterodimers were isolated as described previously (Hoon et al., Biochem J 309:629-636 (1995); Ryba and Tirindelli, J Biol Chem, 270:6757-6767 (1995)). Receptor-catalyzed exchange of GDP for GTPγS on gustducin and other G-protein α-subunits was measured in the presence of 10 nM rho-mT2R5, 100 μM GDP, and 20 μM Gβ1γ8. All measurements were made at 15-minute time points, and reflect the initial rate of GTPγS binding.
On the technique in general: Binding of GTPγS marks nucleotide exchange on a G protein.

Regarding `C[C@@H]1C[C@@H]([C@H](O)CC2CC(=O)NC(=O)C2)C(=O)[C@@H](C)C1` [cycloheximide], on mT2R5, a half-maximal effect (EC50) was put at 0.5 µM, the “response of cells expressing mT2R5” value was “specifically responded”, the “response to successive applications” value is on record as “significantly reduced responses” and the threshold of response is around 0.2 µM. The “[Ca2+]i response (FURA-2)” value at mT2R5 (absence of Gα15) is “No increase in [Ca2+]i”. For the same molecule, the “[Ca2+]i response (FURA-2)” value on mT2R5 (with Gα15) is given as “robust Gα15 dependent responses”. Moreover, the “specificity of [Ca2+]i response” value at mT2R5 (5 μM) is listed as “highly specific”. The “[Ca2+]i changes in cells lacking receptor or Gα15” value on mT2R5 (5000-fold higher concentration) is “did not trigger [Ca2+]i changes”. In addition, the cells responding on mT2R5 (entire camera field) is given as above 70%. For the same molecule, on mT2R5 (exposure >10 s), the “response to prolonged exposure” value was “adaptation”. Moreover, on mT2R5 (micromolar concentrations), the response under superfusion entry is on record as “robust transient responses”. On mT2R5 (microperfusion chamber), this molecule had a latency of response below 1 s. Also, the “receptor activation by tastant pulses” value on mT2R5 (multiple pulses of 2 μM) is “robust receptor activation”. Besides, in experiment [1], the Kd amounted to 14.8 µM and the “coupling of mT2R5 to gustducin” value is recorded as “exquisite cycloheximide-dependent coupling”. Further, the gustducin activation result in experiment [1] (300 μM) is reported as “activate gustducin”.
`CC[N+](CC)(CC(=O)Nc1c(C)cccc1C)Cc1ccccc1` [denatonium]: the “[Ca2+]i response to tastant” value at mT2R5 (5 mM) is on record as “not observed”. The gustducin activation result in experiment [1] (1 mM) is reported as “not”.
